Experimental data taken from ChEMBL document CHEMBL2086262, “Ligand-based designing, in silico screening, and biological evaluation of new potent fructose-1,6-bisphosphatase (FBPase) inhibitors” (Eur J Med Chem, 2012).
Activity calls are given as the source filed them. The calls are words filed in the database; no cut-off is given here.

Assays:
[1] = Inhibition of human recombinant FBPase using fructose-1,6-biphosphate as substrate incubated for 3 mins prior to substrate addition by spectrophotometric analysis
Homo sapiens = species on record: Homo sapiens; assay: Inhibition of human recombinant FBPase using fructose-1,6-biphosphate as substrate at 10 uM incubated for 3 mins prior to substrate addition by spectrophotometric analysis

IC50 [1] | inhibition (Homo sapiens) | Compound
330 nM | 87% | CCOC(=O)c1csc(-c2csc(CCNC(=O)c3ccccc3)n2)n1
150 nM | 100% | O=S(=O)(O)c1ccccc1/C=N/N=C/c1ccccc1S(=O)(=O)O
700 nM | 100% | C[N+](C)(CCCCOc1c(Br)cc(Br)cc1Br)Cc1ccc([N+](=O)[O-])o1
5880 nM | 67% | O=C(CCCOc1ccc(Cl)cc1Cl)NC(CC1NCc2ccccc21)C(=O)O (stereo unspecified)
6020 nM | 69% | CCN1C(=O)/C(=C/c2ccc(O)c(S(=O)(=O)O)c2)SC1=S
– | inactive | COc1cc(/C=C/Cc2c(O)ccc3c2OCO3)cc(OC)c1OC
1650 nM | 100% | O=C(OCc1ccc([N+](=O)[O-])cc1)c1ccccc1[N+](=O)[O-]
– | inactive | O=C1NC(=O)C2N=C(CNc3ccc(C(=O)O)cc3)NC2N1 (stereo unspecified)
– | inactive | COc1cc(C2=N/C(=C\c3cccc(O)c3O)C(=O)O2)cc(OC)c1OC
320 nM | 76% | COc1ccc(C(=O)/C=C2/Nc3ccc([N+](=O)[O-])cc3NC2=O)cc1
2440 nM | 60% | Cc1cc(Cl)ccc1OCCCC(=O)NC(CC(C)C)C(=O)O (stereo unspecified)
– | 37% | O=S(=O)(SCCCCSS(=O)(=O)c1ccc(Cl)cc1)c1ccc(Cl)cc1
3800 nM | 81% | CC1(C)C2CCC1(C)C(OCCC/N=C(\N)CSS(=O)(=O)O)C2 (stereo unspecified)
250 nM | 100% | CC1(C)N=C(N)N=C(N)N1c1cccc(OCCOc2ccccc2[N+](=O)[O-])c1
3460 nM | 77% | C=CCN1C(=O)/C(=C/c2ccccc2OCC(=O)O)SC1=S
2230 nM | 74% | COC(=O)CC(=O)CC(=O)c1cccc([N+](=O)[O-])c1
900 nM | 87% | O=C(O)c1ccccc1C(=O)CCC(=O)c1ccccc1C(=O)O
1200 nM | – | O=C(O)CCCCc1c(C(=O)O)[nH]c2cc(Cl)cc(Cl)c12
> 10000 nM | – | Cc1nc(-c2cccc(Nc3ncnc4ccccc34)c2)cs1
800 nM | – | CCOc1cc2ncnc(Nc3cccc(-c4csc(NC)n4)c3)c2cc1OCC
960 nM | – | CCOc1cc2nc(CC(=O)O)nc(Nc3cccc(-c4csc(C)n4)c3)c2cc1OCC
4400 nM | – | COc1cc2ncnc(Nc3cccc(-c4csc(C)n4)c3)c2cc1OC
2900 nM | – | COCCOc1ccc2ncnc(Nc3cccc(Br)c3)c2c1
